# Assay results taken from patent publication US11464854B2, “Methods and compositions relating to adjuvants” (Children's Medical Center Corporation, priority 2017, dated 2022).
# Molecular target: T1, human TLR7 (Homo sapiens, UniProt Q9NYK1)
# T1 construct: host or cells: HEK293 with NF-kB-responsive SEAP reporter
# T1 sequence (Q9NYK1 27-1049): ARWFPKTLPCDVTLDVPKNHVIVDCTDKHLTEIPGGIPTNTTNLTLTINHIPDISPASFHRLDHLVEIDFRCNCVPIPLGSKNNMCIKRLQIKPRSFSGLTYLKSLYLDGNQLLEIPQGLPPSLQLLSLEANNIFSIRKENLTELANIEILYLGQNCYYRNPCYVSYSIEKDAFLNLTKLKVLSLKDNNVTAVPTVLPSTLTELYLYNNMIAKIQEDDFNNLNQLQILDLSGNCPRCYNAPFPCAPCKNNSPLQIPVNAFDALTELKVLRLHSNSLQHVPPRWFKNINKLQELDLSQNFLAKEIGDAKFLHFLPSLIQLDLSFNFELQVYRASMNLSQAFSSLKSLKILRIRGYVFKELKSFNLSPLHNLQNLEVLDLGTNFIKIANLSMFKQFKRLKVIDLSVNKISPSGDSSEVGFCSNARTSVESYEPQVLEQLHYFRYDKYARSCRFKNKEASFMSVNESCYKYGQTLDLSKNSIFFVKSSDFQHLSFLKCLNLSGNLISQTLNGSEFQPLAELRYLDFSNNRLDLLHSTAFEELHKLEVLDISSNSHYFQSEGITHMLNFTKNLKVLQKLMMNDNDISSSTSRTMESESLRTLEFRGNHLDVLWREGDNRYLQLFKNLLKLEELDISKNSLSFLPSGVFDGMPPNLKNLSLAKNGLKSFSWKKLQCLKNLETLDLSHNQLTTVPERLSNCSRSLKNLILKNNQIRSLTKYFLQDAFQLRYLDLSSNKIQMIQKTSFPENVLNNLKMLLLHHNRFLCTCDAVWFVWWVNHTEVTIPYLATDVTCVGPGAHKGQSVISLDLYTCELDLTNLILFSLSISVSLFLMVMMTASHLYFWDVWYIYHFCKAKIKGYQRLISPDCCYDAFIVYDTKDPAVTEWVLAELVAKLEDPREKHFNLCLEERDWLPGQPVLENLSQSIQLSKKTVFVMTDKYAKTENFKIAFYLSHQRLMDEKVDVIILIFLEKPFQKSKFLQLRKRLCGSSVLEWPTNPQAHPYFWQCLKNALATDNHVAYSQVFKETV
# Assay: HEK293 NF-kB SEAP reporter assay, human TLR7
# Format: cell-based
# Details: among six IMQ and OA compounds, SEAP fold change
# Description: Human embryonic kidney (HEK)293 cells expressing human TLR7 or TLR8 with an NF-κB-responsive secreted embryonic alkaline phosphatase (SEAP) reporter gene were obtained from Novus Biologicals (Littleton, Colo.) and Invivogen (San Diego, Calif.), respectively. Cells were maintained in DMEM with 10% HI-FBS and selection antibiotics per the manufacturer's instructions. Cells were plated at 5×10^5 cells/96-well and stimulated with indicated agonist(s) for 24 h. Supernatants were harvested and analyzed for NF-κB/SEAP activation using the QuantiBlue™ kit (Invivogen). Values are expressed as fold change in OD650 over vehicle-only treated samples.
smiles,measurement,value
CCCCc1nc2c(N)nc3ccccc3c2n1CCO [CRX-649],potency for hTLR7,greatest potency
